Test results from ChEMBL document CHEMBL4819030, “Microbial Transformation of Broussochalcones A and B by Aspergillus niger” (J Nat Prod, 2021).
Active and inactive are the calls of the source. The calls are words filed in the database; no cut-off is given here.

Legend:
Type in all cases: functional, cell-based
A549 = test: Cytotoxicity against human A549 cells incubated for 48 hrs by MTT assay
A375P = test: (§1) Cytotoxicity against human A375P cells incubated for 24 hrs by MTT assay
HT-29 = test: Cytotoxicity against human HT29 cells incubated for 24 hrs by MTT assay
MCF7 = test: Cytotoxicity against human MCF7 cells incubated for 24 hrs by MTT assay
HepG2 = test: Cytotoxicity against human HepG2 cells incubated for 48 hrs by MTT assay
[1] = as §1

Q: What does the source list for CC1(C)O[C@H]1Cc1cc(C(=O)/C=C/c2ccc(O)c(O)c2)c(O)cc1O?
A: Activity (A549): inactive; Activity (A375P): inactive; Activity (HT-29): inactive; Activity (MCF7): inactive; Activity (HepG2): inactive

Q: Which Activity (A549) does the source give for CC(C)(O)[C@@H](O)Cc1cc(C(=O)CCc2ccc(O)cc2)c(O)cc1O here?
A: The Activity was “inactive”.

Q: What about the Activity (A375P) of the same compound?
A: Its Activity is “inactive”.

Q: What about the Activity (HT-29) of the same compound?
A: The Activity was “inactive”.

Q: And the Activity (MCF7)?
A: Its Activity is “inactive”.

Q: What about the Activity (HepG2) of the same compound?
A: Its Activity is “inactive”.

Q: For CC1(C)O[C@H]1Cc1cc(C(=O)/C=C/c2ccc(O)cc2)c(O)cc1O, which Activity (A549) is on record?
A: The Activity was “inactive”.

Q: What about the Activity (A375P) of the same compound?
A: The Activity was “inactive”.

Q: What about the Activity (HT-29) of the same compound?
A: Its Activity is “inactive”.

Q: And the Activity (MCF7)?
A: Its Activity is “inactive”.

Q: And the Activity (HepG2)?
A: The Activity was “inactive”.

Q: With CC(C)(O)[C@H](O)Cc1cc(C(=O)/C=C/c2ccc(O)c(O)c2)c(O)cc1O as the compound, how does the Activity (A549) read?
A: The Activity was “inactive”.

Q: And the Activity (A375P)?
A: The Activity was “inactive”.

Q: What about the Activity (HT-29) of the same compound?
A: The Activity was “inactive”.

Q: What about the Activity (MCF7) of the same compound?
A: The Activity was “inactive”.

Q: And the Activity (HepG2)?
A: The Activity was “inactive”.

Q: With CC(C)=CCc1cc(C(=O)CCc2ccc(O)c(O)c2)c(O)cc1O as the compound, how does the IC50 (A549; A549, 48 h) read?
A: Its IC50 is 3.8 µM.

Q: What about the IC50 [1] of the same compound?
A: Its IC50 is 3.8 µM.

Q: What about the IC50 (HT-29; HT-29, 24 h) of the same compound?
A: The IC50 was 3.8 µM.

Q: What about the IC50 (MCF7; MCF7, 24 h) of the same compound?
A: Its IC50 is 3.8 µM.

Q: And the Activity (HepG2)?
A: The Activity was “inactive”.

Q: For CC(C)(O)[C@@H](O)Cc1cc(C(=O)CCc2ccc(O)c(O)c2)c(O)cc1O, which Activity (A549) is on record?
A: The Activity was “inactive”.

Q: What about the Activity (A375P) of the same compound?
A: Its Activity is “inactive”.

Q: What about the Activity (HT-29) of the same compound?
A: The Activity was “inactive”.

Q: And the Activity (MCF7)?
A: The Activity was “inactive”.

Q: What about the Activity (HepG2) of the same compound?
A: The Activity was “inactive”.

Q: Which results are given for CC1(C)O[C@@H]1Cc1cc(C(=O)CCc2ccc(O)cc2)c(O)cc1O?
A: Activity (A549): inactive; Activity (A375P): inactive; Activity (HT-29): inactive; Activity (MCF7): inactive; Activity (HepG2): inactive

Q: For CC(C)(O)[C@H](O)Cc1cc(C(=O)/C=C/c2ccc(O)cc2)c(O)cc1O, which Activity (A549) is on record?
A: The Activity was “inactive”.

Q: And the Activity (A375P)?
A: The Activity was “inactive”.

Q: What about the Activity (HT-29) of the same compound?
A: Its Activity is “inactive”.

Q: And the Activity (MCF7)?
A: The Activity was “inactive”.

Q: And the Activity (HepG2)?
A: The Activity was “inactive”.

Q: Which Activity (A549) does the source give for CC1(C)O[C@@H]1Cc1cc(C(=O)CCc2ccc(O)c(O)c2)c(O)cc1O here?
A: Its Activity is “inactive”.

Q: And the Activity (A375P)?
A: The Activity was “inactive”.

Q: And the Activity (HT-29)?
A: The Activity was “inactive”.

Q: And the Activity (MCF7)?
A: Its Activity is “inactive”.

Q: What about the Activity (HepG2) of the same compound?
A: The Activity was “inactive”.

Q: For CC(C)(O)[C@H]1Cc2cc(C(=O)CCc3ccc(O)cc3)c(O)cc2O1, which Activity (A549) is on record?
A: The Activity was “inactive”.

Q: And the Activity (A375P)?
A: Its Activity is “inactive”.

Q: And the Activity (HT-29)?
A: Its Activity is “inactive”.

Q: And the Activity (MCF7)?
A: The Activity was “inactive”.

Q: What about the Activity (HepG2) of the same compound?
A: Its Activity is “inactive”.
